Laboratory results published in patent publication US9944645B2, “Imidazotriazines and imidazopyrimidines as kinase inhibitors” (Incyte Holdings Corporation, priority 2006, dated 2018).

Target: c-Met kinase (h-Met; histidine-tagged c-Met catalytic domain fusion protein) (Homo sapiens (Human), UniProt P08581)
Assay: In Vitro c-Met Kinase Enzyme Assays
Type: biochemical
Settings: phosphorylation of poly Glu-Tyr, 5 μM ATP, 25 minutes at 30° C.
Method in brief: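 His-tagged c-Met catalytic domain reacted 25 min at 30° C, within the linear initial-rate range. Phosphotyrosine detected by ELISA with peroxidase-labeled anti-phospho-tyrosine antibody and TMB, OD read at 450 nm (540 nm correction); IC50 from curve fit.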

Sequence of c-Met kinase (h-Met; histidine-tagged c-Met catalytic domain fusion protein) (P08581 1078-1345): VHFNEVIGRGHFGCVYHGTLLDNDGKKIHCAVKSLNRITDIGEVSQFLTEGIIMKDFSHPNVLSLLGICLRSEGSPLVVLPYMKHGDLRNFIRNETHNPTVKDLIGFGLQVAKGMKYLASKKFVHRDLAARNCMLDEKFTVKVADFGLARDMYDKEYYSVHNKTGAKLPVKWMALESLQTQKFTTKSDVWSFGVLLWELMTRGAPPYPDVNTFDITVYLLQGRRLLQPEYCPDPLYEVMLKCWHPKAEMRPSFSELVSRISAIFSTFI

Compound	IC50 [nM]
O=C(NCc1ccccn1)c1ccc(-c2cnc3ncc(C4(c5ccc6ncccc6c5)CC4)n3n2)cc1 [Example 106, N-(Pyridin-2-ylmethyl)-4-[7-(1-quinolin-6-ylcyclopropyl)imidazo[1,2-b][1,2,4]triazin-2-yl]benzamide]	< 500
O=C(NC1CC1)c1ccc(-c2cnc3ncc(C4(c5ccc6ncccc6c5)CC4)n3n2)cc1 [Example 107]	< 500
O=C(NC1CCC1)c1ccc(-c2cnc3ncc(C4(c5ccc6ncccc6c5)CC4)n3n2)cc1 [Example 108, N-Cyclobutyl-4-[7-(1-quinolin-6-ylcyclopropyl)imidazo[1,2-b][1,2,4]triazin-2-yl]benzamide]	< 500
O=C(NC1(c2ccccn2)CC1)c1ccc(-c2cnc3ncc(C4(c5ccc6ncccc6c5)CC4)n3n2)cc1 [Example 109, N-(1-Pyridin-2-ylcyclopropyl)-4-[7-(1-quinolin-6-ylcyclopropyl)imidazo[1,2-b][1,2,4]triazin-2-yl]benzamide]	< 500
CC(C)(CO)NC(=O)c1ccc(-c2cnc3ncc(C4(c5ccc6ncccc6c5)CC4)n3n2)cc1 [Example 110, N-(2-Hydroxy-1,1-dimethylethyl)-4-[7-(1-quinolin-6-ylcyclopropyl)imidazo[1,2-b][1,2,4]triazin-2-yl]benzamide]	< 500
O=C(N[C@H](CO)Cc1ccccc1)c1ccc(-c2cnc3ncc(C4(c5ccc6ncccc6c5)CC4)n3n2)cc1 [Example 111, N-[(1S)-1-Benzyl-2-hydroxyethyl]-4-[7-(1-quinolin-6-ylcyclopropyl)imidazo[1,2-b][1,2,4]triazin-2-yl]benzamide]	< 500
O=C(c1ccc(-c2cnc3ncc(C4(c5ccc6ncccc6c5)CC4)n3n2)cc1)N1CC[C@@H](O)C1 [Example 112, (3R)-1-{4-[7-(1-quinolin-6-ylcyclopropyl)imidazo[1,2-b][1,2,4]triazin-2-yl]benzoyl}pyrrolidin-3-ol]	< 500
O=C(NC1CCOCC1)c1ccc(-c2cnc3ncc(C4(c5ccc6ncccc6c5)CC4)n3n2)cc1 [Example 113, 4-(7-(1-(Quinolin-6-yl)cyclopropyl)imidazo[1,2-b][1,2,4]triazin-2-yl)-N-(tetrahydro-2H-pyran-4-yl)benzamide]	< 500
CN(C(=O)c1ccc(-c2cnc3ncc(C4(c5ccc6ncccc6c5)CC4)n3n2)cc1)C1CC1 [Example 114, N-Cyclopropyl-N-methyl-4-[7-(1-quinolin-6-ylcyclopropyl)imidazo[1,2-b][1,2,4]triazin-2-yl]benzamide]	< 500
COCC1(NC(=O)c2ccc(-c3cnc4ncc(C5(c6ccc7ncccc7c6)CC5)n4n3)cc2)CC1 [Example 115, N-[1-(Methoxymethyl)cyclopropyl]-4-[7-(1-quinolin-6-ylcyclopropyl)imidazo[1,2-b][1,2,4]triazin-2-yl]benzamide]	< 500
COCC1(NC(=O)c2ccc(-c3cnc4ncc(C5(c6ccc7ncccc7c6)CC5)n4n3)cc2)CCC1 [Example 116, N-[1-(Methoxymethyl)cyclobutyl]-4-[7-(1-quinolin-6-ylcyclopropyl)imidazo[1,2-b][1,2,4]triazin-2-yl]benzamide]	< 500
COC[C@@H](NC(=O)c1ccc(-c2cnc3ncc(C4(c5ccc6ncccc6c5)CC4)n3n2)cc1)C(C)C [Example 117]	< 500
COCC1(NC(=O)c2ccc(-c3cnc4ncc(C5(c6ccc7ncccc7c6)CC5)n4n3)cc2)CCOCC1 [Example 118]	< 500
O=C(Nc1nccs1)c1ccc(-c2cnc3ncc(C4(c5ccc6ncccc6c5)CC4)n3n2)cc1 [Example 119, 4-[7-(1-Quinolin-6-ylcyclopropyl)imidazo[1,2-b][1,2,4]triazin-2-yl]-N-1,3-thiazol-2-ylbenzamide]	< 500
C[C@H](COC(=O)N(C)C)NC(=O)c1ccc(-c2cnc3ncc(C4(c5ccc6ncccc6c5)CC4)n3n2)cc1 [Example 121]	< 500
CC(c1ccc2ncccc2c1)c1cnc2ncc(-c3ccc(C(=O)N[C@@H](C(=O)N(C)C)C(C)C)cc3)nn12 (stereo partly drawn) [Example 122, N-{(1R)-1-[(Dimethylamino)carbonyl]-2-methylpropyl}-4-[7-(1-quinolin-6-ylethyl)imidazo[1,2-b][1,2,4]triazin-2-yl]benzamide]	< 500
O=C(NC1CC1)c1ccc(-c2cnc3ncc(Cc4ccc5ncccc5c4)n3n2)cc1F [Example 123, N-Cyclopropyl-2-fluoro-4-[7-(quinolin-6-ylmethyl)imidazo[1,2-b][1,2,4]triazin-2-yl]benzamide]	< 500
COCC1(NC(=O)c2ccc(-c3cnc4ncc(Cc5ccc6ncccc6c5)n4n3)cc2F)CC1 [Example 124, 2-Fluoro-N-[1-(methoxymethyl)cyclopropyl]-4-[7-(quinolin-6-ylmethyl)imidazo[1,2-b][1,2,4]triazin-2-yl]benzamide]	< 500

Compound	IC50 [nM]
O=C(NC1CCOCC1)c1ccc(-c2cnc3ncc(Cc4ccc5ncccc5c4)n3n2)cc1F [Example 125, 2-Fluoro-4-[7-(quinolin-6-ylmethyl)imidazo[1,2-b][1,2,4]triazin-2-yl]-N-(tetrahydro-2H-pyran-4-yl)benzamide]	< 500
O=C(c1ccc(-c2cnc3ncc(Cc4ccc5ncccc5c4)n3n2)cc1F)N1CC[C@@H](O)C1 [Example 126, (3R)-1-{2-Fluoro-4-[7-(quinolin-6-ylmethyl)imidazo[1,2-b][1,2,4]triazin-2-yl]benzoyl}pyrrolidin-3-ol]	< 500
NC(=O)c1ccc(-c2cnc3ncc(Cc4ccc5ncccc5c4)n3n2)cc1F [Example 127, 2-Fluoro-4-[7-(quinolin-6-ylmethyl)imidazo[1,2-b][1,2,4]triazin-2-yl]benzamide]	< 500
O=C(N[C@H]1CC[C@H](O)CC1)c1ccc(-c2cnc3ncc(Cc4ccc5ncccc5c4)n3n2)cc1F [Example 128, 2-Fluoro-N-(trans-4-hydroxycyclohexyl)-4-[7-(quinolin-6-ylmethyl)imidazo[1,2-b][1,2,4]triazin-2-yl]benzamide]	< 500
Fc1cc(-c2cnc3ncc(Cc4ccc5ncccc5c4)n3n2)ccc1-n1ccnc1 [Example 129, 6-{2-[3-Fluoro-4-(1H-imidazol-1-yl)phenyl]imidazo[1,2-b][1,2,4]triazin-7-ylmethyl}quinoline]	< 500
O=C1OCCN1c1ccc(-c2cnc3ncc(Cc4ccc5ncccc5c4)n3n2)cc1F [Example 130, 3-{2-Fluoro-4-[7-(quinolin-6-ylmethyl)imidazo[1,2-b][1,2,4]triazin-2-yl]phenyl}-1,3-oxazolidin-2-one]	< 500
CNC(=O)[C@@H](NC(=O)c1ccc(-c2cnc3ncc(Cc4ccc5ncccc5c4)n3n2)cc1F)C(C)(C)C [Example 131, N-(1S)-2,2-Dimethyl-1-[(methylamino)carbonyl]propyl-2-fluoro-4-[7-(quinolin-6-ylmethyl)imidazo[1,2-b][1,2,4]triazin-2-yl]benzamide]	< 500
CN(C)C(=O)[C@@H](NC(=O)c1ccc(-c2cnc3ncc(Cc4ccc5ncccc5c4)n3n2)cc1F)C(C)(C)C [Example 132, N-(1S)-1-[(Dimethylamino)carbonyl]-2,2-dimethylpropyl-2-fluoro-4-[7-(quinolin-6-ylmethyl)imidazo[1,2-b][1,2,4]triazin-2-yl]benzamide]	< 500
CC(C)(C)[C@H](NC(=O)c1ccc(-c2cnc3ncc(Cc4ccc5ncccc5c4)n3n2)cc1F)C(=O)N1CCC1 [Example 133, N-[(1S)-1-(Azetidin-1-ylcarbonyl)-2,2-dimethylpropyl]-2-fluoro-4-[7-(quinolin-6-ylmethyl)imidazo[1,2-b][1,2,4]triazin-2-yl]benzamide]	< 500
CC(C)C[C@H](NC(=O)c1ccc(-c2cnc3ncc(Cc4ccc5ncccc5c4)n3n2)cc1F)C(=O)N(C)C [Example 134, N-{(1S)-1-[(Dimethylamino)carbonyl]-3-methylbutyl}-2-fluoro-4-[7-(quinolin-6-ylmethyl)imidazo[1,2-b][1,2,4]triazin-2-yl]benzamide]	< 500
CNC(=O)[C@@H](CC(C)C)NC(=O)c1ccc(-c2cnc3ncc(Cc4ccc5ncccc5c4)n3n2)cc1F [Example 135, 2-Fluoro-N-{(1R)-3-methyl-1-[(methylamino)carbonyl]butyl}-4-[7-(quinolin-6-ylmethyl)imidazo[1,2-b][1,2,4]triazin-2-yl]benzamide]	< 500
CC(C)C[C@@H](NC(=O)c1ccc(-c2cnc3ncc(Cc4ccc5ncccc5c4)n3n2)cc1F)C(=O)N(C)C [Example 136, N-{(1R)-1-[(Dimethylamino)carbonyl]-3-methylbutyl}-2-fluoro-4-[7-(quinolin-6-ylmethyl)imidazo[1,2-b][1,2,4]triazin-2-yl]benzamide]	< 500
CC(C)C[C@@H](NC(=O)c1ccc(-c2cnc3ncc(Cc4ccc5ncccc5c4)n3n2)cc1F)C(=O)N1CCC1 [Example 137, N-[(1R)-1-(Azetidin-1-ylcarbonyl)-3-methylbutyl]-2-fluoro-4-[7-(quinolin-6-ylmethyl)imidazo[1,2-b][1,2,4]triazin-2-yl]benzamide]	< 500
N#CCCn1cc(-c2cnc3ncc(Cc4ccc5ncccc5c4)n3n2)cn1 [Example 138, 3-{4-[7-(Quinolin-6-ylmethyl)imidazo[1,2-b][1,2,4]triazin-2-yl]-1H-pyrazol-1-yl}propanenitrile]	< 500
N#CCn1cc(-c2cnc3ncc(Cc4ccc5ncccc5c4)n3n2)cn1 [Example 139, 4-[7-(Quinolin-6-ylmethyl)imidazo[1,2-b][1,2,4]triazin-2-yl]-1H-pyrazol-1-ylacetonitrile]	< 500
NC(=O)Cn1cc(-c2cnc3ncc(Cc4ccc5ncccc5c4)n3n2)cn1 [Example 140, 2-{4-[7-(Quinolin-6-ylmethyl)imidazo[1,2-b][1,2,4]triazin-2-yl]-1H-pyrazol-1-yl}acetamide]	< 500
COC(=O)N1CCC(n2cc(-c3cnc4ncc(Cc5ccc6ncccc6c5)n4n3)cn2)CC1 [Example 141, Methyl 4-{4-[7-(quinolin-6-ylmethyl)imidazo[1,2-b][1,2,4]triazin-2-yl]-1H-pyrazol-1-yl}piperidine-1-carboxylate]	< 500
